Laboratory results from a melting point compilation (Tetko et al.; mined from patent text by program, amines drawn as free bases though some values may be those of a salt).

SMILES | melting point
O=c1c2cc(Cl)ccc2nc(C(S)c2ncnc3[nH]cnc23)n1-c1ccccc1Cl (centres undefined) | 237 to 238 °C
CN1C(c2ccc(C#N)cc2)=NC(C(F)(F)F)(C(F)(F)F)C1NC(=O)c1ccc(CF)cc1 (centres undefined) | 189 to 190 °C
Nc1c(Cl)c(C(F)(F)F)nn1-c1c(Cl)cc(C(F)(F)F)cc1Cl | 99 to 100 °C
CC1(C)OC(C=Cc2ccsc2)=CC1=O | 79 to 80 °C
c1ccc(CNc2nc3ccccc3s2)cc1 | 159 °C
COc1cccc(C(=O)O)c1N | 172 to 175 °C
N#CC(C=O)c1cnccn1 (centres undefined) | 192 to 194 °C
COc1cc(OC)cc(OC(=O)NC(=O)C(c2ccccc2)c2ccccc2)c1 | 150 to 152 °C
CC(C)(C)OC(=O)NC(C(=O)O)C1(O)CCOCC1 (centres undefined) | 140 to 141 °C
CCCNC(=O)C(C)(C)n1cc(C)c(-c2ccccc2)n1 | 47 to 50 °C
O=C1C(c2ccccc2)=C(c2ccc(Cl)cc2)C(=O)N1c1ccc(Cl)cc1 | 157 °C
COC(=S)c1nc(Br)nc(C)c1Cl | 105 to 106 °C
CCOC(=O)[C@H](CCc1ccccc1)N[C@@H](C)C(=O)N1N=C(c2ccc(SC)cc2)S[C@H]1C(=O)O | 163 to 164 °C
O=[N+]([O-])C(=Cc1ccco1)C1=NCCN1Cc1ccc(Cl)nc1 | 157 to 162 °C
Nc1ccc(Cl)c(Cl)c1Br | 78 to 80 °C
CC(C)n1c(S(=O)(=O)c2ccc(OCc3ccccc3)cc2)nc2ccccc21 | 94 to 96 °C
COC(=O)c1c(Cc2ccc(C(=O)NC(C)(C)CC(=O)N(C)C)cc2)c(=O)c2ccc(Cl)cc2n1-c1ccccc1 | 84.1 to 95.5 °C
CCN(CC)C(=S)n1cc(F)c(/N=C/N(C)C)nc1=O | 118 to 123 °C
Cc1cccc(C(=O)O)c1Cl | 141 to 142 °C
O=C(NCCCCCCNC(=O)N(O)Cc1ccccc1)N(O)Cc1ccccc1 | 181 to 182 °C

SMILES | melting point
Cc1c(Cc2cccc(C(F)(F)F)c2)oc2c(-c3cccc(C(=O)NCCS(C)=O)c3)cccc12 (centres undefined) | 146 to 147 °C
CN[C@@H](CC(C)C)C(=O)O | 101 to 103 °C
O=C(O)Cc1ccc(CO[N+](=O)[O-])cc1 | 109 to 110 °C
CCOC(=O)c1cc2cc(N=[N+]=[N-])ccc2[nH]1 | 140 °C
CC(=O)c1ccc(-c2ccc(F)cc2Br)cc1 | 70 to 72 °C
O=C(O)C(=O)CC(=O)c1cn(CCCCc2ccccc2)c2ccccc2c1=O | 136 to 138 °C
OCc1ccc2cc(CO)ccc2c1 | 171 to 172 °C
Cc1c(C(=O)CBr)ncn1C | 276 to 277 °C
CCOC(=O)C(C)(C)C(O)C(c1ccc(Cl)cc1)n1ccnc1 (centres undefined) | 120 to 124 °C
CC(=O)Oc1ccc2c(c1)OC(c1ccccc1)(c1ccccc1)O2 | 81.5 to 82.5 °C
CC(OCc1ccc(-c2ccccc2)cc1)C(=O)NO (centres undefined) | 120 to 123 °C
O=[N+]([O-])c1ccc(OCc2ccccn2)cc1 | 116 to 117 °C
COc1cc2cc(CO)c(CO)c(-c3ccnc(Nc4ccccc4CCCO)c3)c2cc1OC | 156 to 158 °C
COc1ccc(C[C@@H](NC(=O)c2cccc3ccccc23)[C@@H](O)c2ccc(F)cc2)cc1 (racemic) | 198 to 199 °C
O=C1NCC(CCOC(=O)c2ccccc2)(c2ccc(F)c(F)c2)O1 (centres undefined) | 147 °C
CC(Cc1ccc(OCc2ccncc2)cc1)NCC(O)c1cccc(Cl)c1 (centres undefined) | 85 to 110 °C
Oc1ccc2nc(CCl)oc2c1 | 148 to 154 °C
O=C(O)c1ccc(CO)cc1O | 179 to 180 °C
CCOC(=O)CNC(=O)C(C)(C(C)C)C(C)C | 74.5 to 75.5 °C

Other lines, results leading:

melting point | SMILES
65 to 66 °C | CCOC(=O)c1c(Cl)nc(-c2ccccc2)c([N+](=O)[O-])c1C(=O)OCC
146 to 148 °C | O=C1CCc2cc(Cl)c(S(=O)(=O)Cl)cc21
230 to 232 °C | CCOC(=O)c1cn(-c2ccc(F)cc2)c2nc(Cl)c(F)cc2c1=O
> 280 °C | COc1c(F)cc2c(=O)c(C(=O)O)cn(-c3cc(N)c(F)cc3F)c2c1C
120 to 122 °C | CCSC1=C(NC(=O)CN2CCN(CCSc3nc4c(C)c(Cl)cc(C(C)C)c4o3)CC2)C=CC(C)(SCC)N1 (centres undefined)
112 to 113 °C | CC(CC#N)N1C(=O)C2(OCCCO2)c2cc(Br)ccc21 (centres undefined)
202 to 204 °C | COc1ccc2c(c1)c(CC(=O)O)c(C)n2-c1ncnc2cc(Cl)ccc12
71 to 72 °C | Cc1ncc(C(=O)N2CCCC2)s1
111 to 113 °C | Cc1cccc2oc3cc(Cl)ccc3c(=O)c12
89 to 95 °C | OCC1OC(n2cnc3c(NCC(c4ccccc4)c4ccc(Cl)cc4)ncnc32)C(O)C1O (centres undefined)
79.5 to 82 °C | O=C1CSCc2cc(Cl)ccc21
178 to 180 °C | Nn1c(C2CCCCC2)nnc(-c2ccccc2)c1=O
106 °C | CCOC(=O)NS(=O)(=O)c1cc(C(C)=O)ccc1Cl
138 to 139 °C | CCOC(=O)Cn1c(-c2ccc(Br)cc2)nc2cccnc21
251 to 253 °C | CN1C(=O)CCCc2cc(Nc3ncc(Cl)c(NC4CCCCC4C(N)=O)n3)ccc21 (centres undefined)
32 to 34 °C | CCCCCOc1nc(Cl)nc2ccccc12
132 to 134 °C | COc1ccc(CC2Cc3cc(C)cnc3C(O)C2)cc1 (single isomer, unassigned; (+))
132 to 134 °C | CSC(Oc1cc2cc(Br)cnc2cc1C)C(=O)NC(C)(C)C (centres undefined)

melting point | SMILES
100 to 102 °C | Cc1ccc(S(=O)(=O)OCC2CCc3cc(C#N)ccc3C2)cc1 (centres undefined)
125 °C | O=C(O)C(CCc1ccc2c(c1)CCO2)NC(=O)C(F)(F)F (centres undefined)
225 to 227 °C | COc1cccc(COc2cccc3c2CN(C2CCC(=O)NC2=O)C3=O)c1 (centres undefined)
137 to 140 °C | CC12CCC(=O)C=C1CCC1C2CCC2(C)C(C(F)F)CCC12 (centres undefined)
119 to 120 °C | CCOC(=O)Cc1nc(-c2ccc(Cl)cc2)oc1-c1cccs1
140 to 143 °C | CC(O)(C#Cc1ccc(S(=O)(=O)N2CCCC2)cc1)C(F)(F)F (centres undefined)
220 °C | Cn1cnnc1C(N)(c1ccc(Cl)cc1)c1ccc2c(c1)c(-c1cccc(Cl)c1)nc1nnnn12 (centres undefined)
180 to 185 °C | Cc1nc2c(-c3cccc(N4CCN(C5CCN(C)CC5)CC4)c3)cnn2c(N)c1-c1cccc(Cl)c1
225 to 226 °C | O=C(O)COc1cccc(-n2nc(-c3ccc(F)cc3)c3cccnc32)c1
186 to 188 °C | CCOCc1nc2c(N)nc3ccc(OCc4ccccc4)cc3c2n1CCCCN(C(N)=O)c1ccccc1
94 to 97 °C | O=C1c2cc(Cl)ccc2-c2ccccc2CN1CCBr
73 to 76 °C | CCCCOc1ccc(S(=O)(=O)N2CCC(N(Cc3ccccc3)CC(O)COc3cccc4[nH]c5ccccc5c34)C2)cc1 (centres undefined)
195 to 196 °C | CCCCc1nc2c(N)nc3ccccc3c2n1CCCCNS(C)(=O)=O
121 to 123 °C | COC(=O)c1nc(C)c(-c2ccncc2)s1
165 to 166 °C | CSC(Oc1ccc2ncc(I)cc2c1)C(=O)NC(C)(C)C (centres undefined)
138 to 139 °C | O=C(Nc1ccccc1Oc1cc(Cl)cc(Cl)c1)C1CCNCC1
177 to 179 °C | Nc1c(N(CC(=O)O)Cc2ccccc2)c(=O)c1=O
